Series [1] has as its system reconstructed human corneal epithelium model (SkinEthic™ HCE). The source says: The reconstructed human corneal epithelium model, (SkinEthic™ HCE) was purchased from Episkin in Lyon. The model consists of immortalized human corneal epithelial cells grown in a defined medium at the air-liquid interface. The tissue structure obtained is a multi-layer epithelium similar to the natural tissue structure of the human cornea, comprising 5-7 layers with a surface area of 0.5 cm^2.
Polyhedral cells and wing cells are also present. The tissue also comprises specific ultrastructures such as intermediate filaments, mature hemidesmosomes and desmosomes. […] The tissues are shipped on a semi-solid layer of agarose culture medium. Upon receipt, the tissues are transferred to maintenance medium (1 ml/well) in 6-well plates and incubated in a climatic chamber at 37° C., 5% CO2. The tissues are used 24 hours later.
Liquid products are tested for solubility in phosphate-buffered saline (PBS) or olive oil. In summary, 100 μl of the test product is mixed with 200 μl of PBS or olive oil.
The sample is mixed on a vortex mixer. Turbidity and possible phase separation are assessed by eye. The products are tested pure or diluted to 30%. Products that are not soluble in PBS or olive oil cannot be tested at 30%.
The procedure for applying liquid products to the tissues was optimized as follows: the chemicals are tested at two concentrations, 100% and 30%. In summary, the tissue surface is moistened by adding 20 μl of PBS at 37° C. and incubation for 10 min at 37° C./5% CO2. The corneal epithelia are then treated topically with 50±2 μL of the test product (corresponding to 100 μL/cm2) and incubated for 10 min at room temperature. The tissues are then washed with sterile PBS (2×25 ml) at 37° C. PBS is applied to the edge of the insert (not directly on the tissue) to create a gentle vortex that removes the chemical. The tissues on their inserts are then “embedded” in 5 ml of maintenance medium at room temperature for 30 min in order to remove as much as possible of the product remaining on the tissue surface. The medium is then removed by gently tapping the insert on absorbent paper, and 50 μl of maintenance medium at 37° C. is added. The inserts are then incubated for 6 h at 37° C./5% CO2.
In summary, corneal tissues are recovered with forceps and placed in tubes for rapid freezing in liquid nitrogen. The RNA is then extracted by the QIAzol technique (Qiagen, Courtaboeuf, France) with an “RNeasy Mini Kit” according to the manufacturer's instructions. In summary, the tissues are placed in 1 ml of QIAzol and homogenized using the TissueLyser II (Qiagen, Courtaboeuf, France) with 2 steel beads. After centrifugation, the supernatant is collected and 0.2 ml of bromochloro propane (Sigma, France) is added, then the whole is vigorously mixed. The homogenate is centrifuged at 12,000 g for 15 min at 4° C. The upper phase (aqueous phase) is added to 600 μl of 70% ethanol and immediately mixed by pipetting. The mixture is transferred to an RNeasy spin column placed on a 2 ml collection tube and the RNA is collected according to the manufacturer's instructions (Qiagen, Courtaboeuf, France).
In summary, the transcription of total RNA is performed with 1 μg of total RNA in a final volume of 20 μl using “Random Primers” (Invitrogen, France) and “SuperScript III Reverse Transcriptase” (Invitrogen, France) according to the manufacturer's instructions. Quantitative RT-PCR uses a PCR reagent mix: SYBR Green Real-Time PCR Master Mix (ROCHE, France) with 0.4 μM of each nucleotide primer in a final volume of 25 μl. The reaction is performed in an LC480 System (ROCHE, France). The amplification program comprises a cycle at 95° C. for 1 min, followed by 40 cycles with denaturation at 95° C. for 15 s, a hybridization and amplification phase at 60° C. for 15 s, followed by a final elongation phase at 72° C. for 40 s.

Another series relates to eye. The following applies: cited from earlier work; for GHS Class: Table 6, list of solid chemicals studied; for eye irritation category as stated in text and figure legends: control chemicals and chemicals of FIG. 1 and FIG. 2; for UN GHS: Table 1, list of liquid products studied.
Where [2] appears, read: liquid products, category from LII at 100% and 30%.
The mark [3] stands for this setting: Table 3, results obtained by the Draize test, liquid products.

The values below come from patent publication US12410472B2, “Method for evaluating the eye irritation potential of chemicals” (IMMUNOSEARCH, priority 2016, dated 2025).

Read-outs that look alike come from different tables or passages of the source. Marks after values point to notes of the source that are not given here.

As to “1-Ethyl-3-methylimidazolium ethylsulfate”, the EIT prediction result in series [1] (setting [2]) is “No Cat*”. Moreover, the UN-GHS entry with eye (setting [3]) is given as “No Cat”.
As to `Oc1cccc2c(O)cccc12` [1,5-Naphthalenediol], in the series with eye (Draize test classification), the UN-GHS entry is given as “Cat 2A”. Besides, the “GHS Class” value in the series on eye is listed as “Cat 2A”. Also, the “eye irritation category as stated in text and figure legends” value (from here on “eye irritation category as stated”) with eye (listed as naphthalene dione) was “Category 2”.
Take `C=CCCCCCCC=C` [1,9-Decadiene]: the EIT prediction entry in series [1] is given as “No Cat”. Also, in the series with eye (setting [3]), the UN-GHS result is recorded as “No Cat”.
As for `OCCCCCCCCCl` [1-Chloroctan-8-ol], in series [1] (setting [2]), the EIT prediction entry is listed as “Cat 1”. The “UN GHS” value in the series with eye is on record as “Cat 1”. The UN-GHS entry with eye (setting [3]) is on record as “Cat 1”.
In the case of `O=C(O)Cc1cccc2ccccc12` [1-Naphthalene acetic acid], the UN-GHS result in the series with eye (Draize test classification) is on record as “Cat 1”. Further, in the series on eye, the “GHS Class” value is reported as “Cat 1”.
`CC(C)(C)CC(C)(C)c1cc(Cc2cc(C(C)(C)CC(C)(C)C)cc(-n3nc4ccccc4n3)c2O)c(O)c(-n2nc3ccccc3n2)c1` [2,2′-Methylene-bis-(6-(2H-benzotriazol-2-yl)-4-(1,1,3,3-tetramethylbutyl)phenol)]: in the series on eye, the “GHS Class” value is given as “No cat”; the “eye irritation category as stated” value is recorded as “No category”.
Regarding `CC(O)CC(C)O` (stereo not drawn) [2,4-Pentanediol], the EIT prediction result in series [1] was “No Cat”. The UN-GHS entry in the series with eye (setting [3]) is “No Cat”. In addition, the “eye irritation category as stated” value with eye was “No category”.
Take `O=C(Cl)c1c(Cl)cccc1Cl` [2,6-Dichlorobenzoyl chloride]: the EIT prediction entry in series [1] (human, 10 min) was “Cat 2”. Also, in the series with eye (setting [3]), the UN-GHS entry is “Cat 2A”.
For the compound `C=C(C)C(=O)OCCOCC` [2-Ethoxyethyl methacrylate], the EIT prediction result in series [1] is on record as “No Cat”. Further, the UN-GHS entry in the series on eye (setting [3]) is “No Cat”.
On to `CCCC(C)CO` (stereo not drawn) [2-Methyl-1-pentanol], for which, in series [1] (human, 10 min), the EIT prediction entry is listed as “Cat 2”. Further, the UN-GHS result with eye (setting [3]) is “Cat 2B”. Further, the “eye irritation category as stated” value with eye was “Category 2”.
As for `N#CCCCl` [3-Chloropropionitrile], the EIT prediction entry in series [1] (setting [2]) was “Cat 2”. For the same compound, the UN-GHS result with eye (setting [3]) is “Cat 2B”.
Consider `CC(C)=O` [Acetone 100%, Acetone], for which the EIT prediction result in series [1] (setting [2]) was “Cat 2”. Besides, the UN-GHS entry in the series with eye (setting [3]) is given as “Cat 2A”. Also, in the series on eye, the “eye irritation category as stated” value is “category 2”.
Regarding `C=CCO` [Allyl alcohol], in series [1] (setting [2]), the EIT prediction entry is “Cat 2”. Moreover, the UN-GHS result with eye (setting [3]) is given as “Cat 2A”.
Consider `CC(C)(C)CC(C)(C)c1ccc(OCCOCC[N+](C)(C)Cc2ccccc2)cc1` [Benzethonium chloride 10%, Benzethonium chloride], for which, in series [1] (setting [2]), the EIT prediction result was “Cat 1”.
As to `N=C(NCCCCCCNC(=N)NC(=N)Nc1ccc(Cl)cc1)NC(=N)Nc1ccc(Cl)cc1.O=C(O)[C@H](O)[C@@H](O)[C@H](O)[C@H](O)CO.O=C(O)[C@H](O)[C@@H](O)[C@H](O)[C@H](O)CO` [Chlorhexidine gluconate (20%), Chlorhexidine gluconate], the EIT prediction result in series [1] (setting [2]) was “Cat 2”. Also, in the series on eye (setting [3]), the UN-GHS result is given as “Cat 2A”.
For `[H]/N=C(\N/C(=N/[H])NCCCCCCNC(=N)NC(=N)Nc1ccc(Cl)cc1)Nc1ccc(Cl)cc1` [Chlorhexidine], the EIT prediction entry in series [1] (human, 10 min) was “Cat 1”. For the same compound, the “UN GHS” value in the series with eye is “Cat 1”. In the series with eye (setting [3]), the UN-GHS result is “Cat 1”.
`CCN(CC)C(=O)c1cccc(C)c1` [Diethyl toluamide]: in series [1] (human, 10 min), the EIT prediction entry was “Cat 2”. The UN-GHS result in the series on eye (setting [3]) is recorded as “Cat 2B”.
For the compound `CCN(CC)CCC#N` [Diethylaminopropionitrile], the EIT prediction result in series [1] (setting [2]) was “Cat 1”. In the series on eye, the “UN GHS” value is “Cat 1”. Further, the UN-GHS result in the series on eye (setting [3]) is given as “Cat 1”.
Take `CCCSSCCC` [Dipropyl disulfide]: the EIT prediction result in series [1] is “No Cat”. Besides, in the series on eye (setting [3]), the UN-GHS result was “No Cat”.
In the case of `CCOC(=O)C(C)C(C)=O` (stereo not drawn) [Ethyl-2-methylacetoacetate], the EIT prediction result in series [1] (human, 10 min) is “Cat 2*”. Moreover, the UN-GHS entry in the series with eye (setting [3]) is “Cat 2B”.
Consider `O=C1CCCO1` [Gamma-butyrolactone], for which the EIT prediction result in series [1] (setting [2]) is listed as “Cat 2”. Also, the UN-GHS result with eye (setting [3]) is reported as “Cat 2A”.
In the case of `OCC(O)CO` [Glycerol], the EIT prediction result in series [1] is on record as “No Cat”. Further, the “eye irritation category as stated” value with eye was “No category”.
Take `O=C(O)CO` [Glycolic acid (10%), Glycolic acid]: the UN-GHS result in the series on eye (setting [3]) is “Cat 2B”.
On to `CCCCCCCCCCCCCCCC[N+](C)(C)C.[Br-]` [Hexadecyltrimethylammonium bromide 6%, Hexadecyltrimethylammonium bromide], for which the EIT prediction result in series [1] (human, 10 min) is reported as “Cat 1”. The “UN GHS” value in the series on eye was “Cat 1”. In addition, the UN-GHS result with eye (setting [3]) was “Cat 1”.
As to `CC(O)C(=O)O` (stereo not drawn) [Lactic acid], the EIT prediction result in series [1] (human, 10 min) was “Cat 1”. In addition, in the series on eye, the “UN GHS” value is on record as “Cat 1”; the “eye irritation category as stated” value is on record as “category 1”. Besides, the UN-GHS entry in the series on eye (setting [3]) was “Cat 1”.
For `CCC(C)=O` [Methyl ethyl ketone], the EIT prediction entry in series [1] (setting [2]) is listed as “Cat 2”. Moreover, the “eye irritation category as stated” value in the series on eye is recorded as “category 2”.
`COC(=O)CS` [Methyl thioglycolate]: the EIT prediction entry in series [1] (human, 10 min) was “Cat 1”. For the same compound, in the series on eye, the “UN GHS” value is recorded as “Cat 1”; the “eye irritation category as stated” value is listed as “category 1”. The UN-GHS result with eye (setting [3]) is recorded as “Cat 1”.
As to `CCCCCCCC[Si](OC)(OC)OC` [Octyltrimethoxysilane (SILAN 108), Octyltrimethoxysilane], the EIT prediction result in series [1] is given as “No Cat*”. In addition, the UN-GHS result with eye (setting [3]) is listed as “No Cat”.
Consider `CCCOCC(C)O` (stereo not drawn) [Propasol Solvent P], for which the EIT prediction entry in series [1] (setting [2]) was “Cat 1”. The UN-GHS result with eye (setting [3]) is given as “Cat 2A”.
Regarding `[Na+].[OH-]` [Sodium hydroxide 0.3%, Sodium hydroxide], in series [1] (setting [2]), the EIT prediction result is “Cat 2”. Moreover, in the series on eye (setting [3]), the UN-GHS entry is given as “Cat 2A”.
Take `CCCCCCCCCCCCOS(=O)(=O)[O-].[Na+]` [Sodium lauryl sulfate 3%, Sodium lauryl sulfate]: the EIT prediction entry in series [1] (setting [2]) was “No Cat”.
Take `C=CC(=O)OCCOCCOCCOCCOC(=O)C=C` [Tetraethylene glycol diacrylate]: in series [1] (human, 10 min), the EIT prediction entry was “Cat 2”. In the series on eye, the “UN GHS” value is listed as “Cat 1”. In addition, the UN-GHS result in the series with eye (setting [3]) is listed as “Cat 1”.
With `CO[Si](CCCNCCN)(OC)OC` [[3-(2-Aminoethylamino)propyl]trimethoxysilane], the EIT prediction result in series [1] (human, 10 min) is recorded as “Cat 1”. For the same compound, the “UN GHS” value in the series with eye is on record as “Cat 1”. Moreover, the UN-GHS entry in the series on eye (setting [3]) is “cat 1”.
In the case of `CCCCCCC(C=O)=Cc1ccccc1` [alpha hexyl cinnamaldehyde], in the series on eye, the “eye irritation category as stated” value is listed as “category 2”.
In the case of `CC(C)C=O` [iso-Butanal], in series [1] (setting [2]), the EIT prediction entry was “Cat 2”. In addition, the UN-GHS entry in the series with eye (setting [3]) is “Cat 2B”.
Turning to `CCCCCCBr` [n-Hexyl bromide], in series [1] (setting [2]), the EIT prediction result is on record as “No Cat*”. For the same compound, in the series with eye (setting [3]), the UN-GHS entry is “No Cat”.
Consider `CCCCCCCCCCCCOS(=O)(=O)[O-].[Na+]` [sodium lauryl sulfate (15%), sodium lauryl sulfate], for which the “eye irritation category as stated” value with eye was “category 1”.
As to “Benzalkonium chloride [Benzalkonium chloride 5%]”, in series [1] (setting [2]), the EIT prediction entry is on record as “Cat 1”. Also, the “UN GHS” value in the series on eye is given as “Cat 1”. For the same compound, the UN-GHS result in the series on eye (setting [3]) was “Cat 1”.
For “benzalkonium chloride [benzalkonium chloride (10%)]”, in the series on eye, the “eye irritation category as stated” value is “category 1”.
